Here are results for 25 compounds from ChEMBL document CHEMBL1146773, “Synthesis of dammarane-type triterpenoids with anti-inflammatory activity in vivo” (2004).

Common to all, as to format: functional
The test system of assay [1] is Mus musculus. The assay can be described thus: In vivo anti-inflammatory activity determined by inhibition of oxazolone-induced allergic contact dermatitis (ACD) in mouse up on tropical application. Also noted: concentration or dose not given beside the values.
For assay [2], the system named is Mus musculus. Kind of assay: In vivo antiinflammatory activity of 4 uM concentration of compound was determined by inhibition of oxazolone-induced allergic contact dermatitis (ACD) in mouse up on tropical application.
Assay [3] deals with Sus scrofa. Kind of assay: In vivo antiinflammatory activity of 130 uM concentration of compound was determined by inhibition of oxazolone-induced allergic contact dermatitis (ACD) in pig up on tropical application.
Assay [4] has as its system Mus musculus. Kind of assay: In vivo antiinflammatory activity of 0.4 uM concentration of compound was determined by inhibition of oxazolone-induced allergic contact dermatitis (ACD) in mouse up on tropical application.
In assay [5] the test system is Mus musculus. Kind of assay: In vivo antiinflammatory activity of 40 uM concentration of compound was determined by inhibition of oxazolone-induced allergic contact dermatitis (ACD) in mouse up on tropical application.
Assay [6] concerns Sus scrofa. The assay can be described thus: In vivo antiinflammatory activity of 40 uM concentration of compound was determined by inhibition of oxazolone-induced allergic contact dermatitis (ACD) in pig up on tropical application.
Assay [7] concerns Sus scrofa. The assay can be described thus: In vivo antiinflammatory activity of 400 uM concentration of compound was determined by inhibition of oxazolone-induced allergic contact dermatitis (ACD) in pig up on tropical application.
The subject of assay [8] is Mus musculus. Kind of assay: In vivo antiinflammatory activity of compound was determined by inhibition of oxazolone-induced allergic contact dermatitis (ACD) in mouse up on tropical application.
Assay [9] deals with Mus musculus. Kind of assay: In vivo antiinflammatory activity of 0.04 uM concentration of compound was determined by inhibition of oxazolone-induced allergic contact dermatitis (ACD) in mouse up on tropical application.

Consider `CC(=O)[C@H]1CC[C@]2(C)[C@@H]1CC[C@@H]1[C@@]3(C)CC[C@H](O)C(C)(C)[C@@H]3CC[C@]12C`, for which, in the assay on Mus musculus [1], the Inhibition is reported as 12%.

Regarding `CC(NCCc1ccc(S(N)(=O)=O)cc1)[C@H]1CC[C@]2(C)[C@@H]1CC[C@H]1[C@H]2CC[C@H]2C(C)(C)[C@@H](O)CC[C@]12C` (stereo not given in full), in the assay with Mus musculus [1], the Inhibition turned out to be 16%.

`CC(NCCc1ccccc1-n1ccnc1)[C@H]1CC[C@]2(C)[C@@H]1CC[C@H]1[C@H]2CC[C@H]2C(C)(C)[C@@H](O)CC[C@]12C` (stereo not given in full) yielded an Inhibition in the assay with Mus musculus [1] of 13%.

In the assay with Mus musculus [1], `CC(NCc1nc2ccccc2[nH]1)[C@H]1CC[C@]2(C)[C@@H]1CC[C@H]1[C@H]2CC[C@H]2C(C)(C)[C@@H](O)CC[C@]12C` (stereo not given in full) displayed an Inhibition of 27%.

With `CC(C)CCC(=O)N[C@@H](C)[C@H]1CC[C@]2(C)[C@@H]1CC[C@H]1[C@H]2CC[C@H]2C(C)(C)[C@@H](O)CC[C@]12C`, the Inhibition with Mus musculus [1] was found to be 33%.

Take `C[C@H](NC(=O)/C=C/c1ccccc1)[C@H]1CC[C@]2(C)[C@@H]1CC[C@H]1[C@H]2CC[C@H]2C(C)(C)[C@@H](O)CC[C@]12C`: in the assay with Mus musculus [1], the Inhibition was 11%.

`C=C(CCc1ccccc1)[C@H]1CC[C@]2(C)[C@@H]1CC[C@H]1[C@H]2CC[C@H]2C(C)(C)[C@@H](O)CC[C@]12C` gave an Inhibition in the assay on Mus musculus [1] of 36%.

For the compound `C=C(C/C=C/C(C)(C)O)[C@@H]1CC[C@]2(C)[C@@H]1CC[C@@H]1[C@@]3(C)CC[C@H](O)C(C)(C)[C@@H]3CC[C@]12C`, the Inhibition in the assay with Mus musculus [2] amounted to 37%; in the assay with Sus scrofa [3], 43%; in the assay with Mus musculus [4], 6%; with Mus musculus [5] it was 65%; in the assay with Sus scrofa [6], 28%.

`CCCCNC(C)[C@H]1CC[C@]2(C)[C@@H]1CC[C@H]1[C@H]2CC[C@H]2C(C)(C)[C@@H](O)CC[C@]12C` (stereo in doubt; 4aA) registered an Inhibition with Mus musculus [1] of 30%.

In turn, `CCCCNC(C)[C@H]1CC[C@]2(C)[C@@H]1CC[C@H]1[C@H]2CC[C@H]2C(C)(C)[C@@H](O)CC[C@]12C` (stereo in doubt; 4aB) had an Inhibition in the assay with Mus musculus [1] of 28%.

The compound `CC(NCc1ccccc1)[C@H]1CC[C@]2(C)[C@@H]1CC[C@H]1[C@H]2CC[C@H]2C(C)(C)[C@@H](O)CC[C@]12C` (stereo in doubt; 4bA) registered an Inhibition with Mus musculus [1] of 28%.

As for `CC(NCc1ccccc1)[C@H]1CC[C@]2(C)[C@@H]1CC[C@H]1[C@H]2CC[C@H]2C(C)(C)[C@@H](O)CC[C@]12C` (stereo in doubt; 4bB), in the assay with Mus musculus [1], the Inhibition is 15%.

Take `CC(NCC(=O)OC(C)(C)C)[C@H]1CC[C@]2(C)[C@@H]1CC[C@H]1[C@H]2CC[C@H]2C(C)(C)[C@@H](O)CC[C@]12C` (stereo in doubt; 4dA): the Inhibition in the assay on Mus musculus [1] is recorded as 31%.

In the case of `CC(NCC(=O)OC(C)(C)C)[C@H]1CC[C@]2(C)[C@@H]1CC[C@H]1[C@H]2CC[C@H]2C(C)(C)[C@@H](O)CC[C@]12C` (stereo in doubt; 4dB), the Inhibition in the assay with Mus musculus [1] is recorded as 21%.

In the assay on Mus musculus [1], `C[C@H](N)[C@H]1CC[C@]2(C)[C@@H]1CC[C@H]1[C@H]2CC[C@H]2C(C)(C)[C@@H](O)CC[C@]12C` (stereo in doubt; 5A) yielded an Inhibition of 38%.

In turn, `C[C@H](N)[C@H]1CC[C@]2(C)[C@@H]1CC[C@H]1[C@H]2CC[C@H]2C(C)(C)[C@@H](O)CC[C@]12C` (stereo in doubt; 5B) displayed an Inhibition in the assay on Mus musculus [1] of 41%.

In the assay on Mus musculus [1], `CC1(C)[C@@H](O)CC[C@]2(C)[C@H]3CC[C@@H]4[C@@H](C(O)CCc5ccccc5)CC[C@@]4(C)[C@@H]3CC[C@@H]12` (stereo in doubt; 11A) registered an Inhibition of 12%.

In the assay on Mus musculus [1], `CC1(C)[C@@H](O)CC[C@]2(C)[C@H]3CC[C@@H]4[C@@H](C(O)CCc5ccccc5)CC[C@@]4(C)[C@@H]3CC[C@@H]12` (stereo in doubt; 11B) came in with an Inhibition of 14%.

As for `CC1(C)[C@@H](O)CC[C@]2(C)[C@H]3CC[C@@H]4[C@@H](C(CCc5ccccc5)NCc5ccccc5)CC[C@@]4(C)[C@@H]3CC[C@@H]12` (stereo in doubt; 12A), the Inhibition in the assay with Mus musculus [1] is reported as 22%.

In the assay with Mus musculus [1], `CC1(C)[C@@H](O)CC[C@]2(C)[C@H]3CC[C@@H]4[C@@H](C(CCc5ccccc5)NCc5ccccc5)CC[C@@]4(C)[C@@H]3CC[C@@H]12` (stereo in doubt; 12B) displayed an Inhibition of 15%.

Take `CC1(C)[C@@H](O)CC[C@]2(C)[C@H]3CC[C@@H]4[C@@H](C(N)CCc5ccccc5)CC[C@@]4(C)[C@@H]3CC[C@@H]12` (stereo in doubt; 13A): the Inhibition in the assay on Mus musculus [1] is listed as 30%.

In the assay on Mus musculus [1], `CC1(C)[C@@H](O)CC[C@]2(C)[C@H]3CC[C@@H]4[C@@H](C(N)CCc5ccccc5)CC[C@@]4(C)[C@@H]3CC[C@@H]12` (stereo in doubt; 13B) showed an Inhibition of 6%.

`CC(CCc1ccccc1)[C@H]1CC[C@]2(C)[C@@H]1CC[C@H]1[C@H]2CC[C@H]2C(C)(C)[C@@H](O)CC[C@]12C` (stereo in doubt; 15A): in the assay with Mus musculus [1], the Inhibition stood at 30%.

As to `CC(CCc1ccccc1)[C@H]1CC[C@]2(C)[C@@H]1CC[C@H]1[C@H]2CC[C@H]2C(C)(C)[C@@H](O)CC[C@]12C` (stereo in doubt; 15B), in the assay with Mus musculus [1], the Inhibition is 29%.

Consider `C[C@@H]1C[C@H]2[C@@H]3CCC4=CC(=O)C=C[C@]4(C)[C@@]3(F)[C@@H](O)C[C@]2(C)[C@@]1(O)C(=O)CO` [DEXAMETHASONE], for which the Inhibition with Sus scrofa [7] was 32%; in the assay on Mus musculus [8] it was 42%; in the assay on Sus scrofa [3], 35%; with Mus musculus [9], 16%; in the assay with Mus musculus [4] it was 41%; in the assay on Mus musculus [5], 35%. The same compound gave an Inhibition in the assay with Sus scrofa [6] of 20%.
